Among the data in ChEMBL document CHEMBL5465560, “Selectivity Literature for EUbOPEN Chemogenomic Library” (2024) are % of control values, retold here.

Common to all, as to settings: at 1 µM
For assay [1], the system named is T1, Receptor-type tyrosine-protein kinase FLT3 (Homo sapiens), P36888 [D835Y].
T1 sequence (whole entry): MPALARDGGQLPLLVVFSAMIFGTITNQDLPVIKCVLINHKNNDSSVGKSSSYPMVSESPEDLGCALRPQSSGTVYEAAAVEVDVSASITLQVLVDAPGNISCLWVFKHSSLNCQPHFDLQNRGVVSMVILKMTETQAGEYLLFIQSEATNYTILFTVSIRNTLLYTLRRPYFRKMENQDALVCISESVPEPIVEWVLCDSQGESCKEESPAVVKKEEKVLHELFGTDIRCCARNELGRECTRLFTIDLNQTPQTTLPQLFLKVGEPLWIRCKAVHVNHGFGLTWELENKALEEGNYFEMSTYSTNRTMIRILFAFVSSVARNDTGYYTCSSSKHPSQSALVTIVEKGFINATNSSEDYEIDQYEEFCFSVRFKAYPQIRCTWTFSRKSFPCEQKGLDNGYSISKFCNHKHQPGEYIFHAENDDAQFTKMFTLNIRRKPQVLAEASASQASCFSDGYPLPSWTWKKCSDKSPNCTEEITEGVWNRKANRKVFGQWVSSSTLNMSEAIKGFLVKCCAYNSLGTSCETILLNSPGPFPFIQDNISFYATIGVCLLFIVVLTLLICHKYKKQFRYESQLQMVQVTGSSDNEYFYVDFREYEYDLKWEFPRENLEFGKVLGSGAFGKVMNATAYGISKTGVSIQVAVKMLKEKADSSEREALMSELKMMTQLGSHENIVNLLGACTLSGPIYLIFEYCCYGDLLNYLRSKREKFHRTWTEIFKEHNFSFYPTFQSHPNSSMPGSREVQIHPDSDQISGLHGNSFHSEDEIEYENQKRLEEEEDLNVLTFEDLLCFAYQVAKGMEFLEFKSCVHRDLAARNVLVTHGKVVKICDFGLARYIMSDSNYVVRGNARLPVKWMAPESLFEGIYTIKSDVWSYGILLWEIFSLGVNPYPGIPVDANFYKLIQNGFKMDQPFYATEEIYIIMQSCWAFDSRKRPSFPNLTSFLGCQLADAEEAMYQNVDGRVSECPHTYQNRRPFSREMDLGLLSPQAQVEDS
The experiment in a line: (§1) Selectivity interaction (KinomeScan (DiscoverX)) EUB0001049a FLT3.

Assay [2] deals with T2, Receptor-type tyrosine-protein kinase FLT3 (Homo sapiens), P36888 [D835H].
T2 sequence (whole entry): T1 sequence (whole entry) with Y835H
The description is as §1.

In assay [3] the test system is T3, Receptor-type tyrosine-protein kinase FLT3 (Homo sapiens), P36888 [N841I].
T3 sequence (whole entry): T1 sequence (whole entry) with Y835D, N841I
Described as §1.

The structures appear in SMILES notation. Where a chain is given by its changes, count along the chain named.

In the case of `COc1cc(Nc2nc(C)cc(-c3cnn4nc(OC)ccc34)n2)cc(C(F)(F)F)c1`, the % of control in assay [1] amounted to 79%; in assay [2], 93%; in assay [3], 100%.
